Data taken from patent US20260159512A1, “BCAT2 INHIBITORS” (AGIOS PHARMACEUTICALS, INC., priority 2021, published 2026).
Values joined by “and” are separate entries in the source; they are usually repeats but may differ in a detail not shown here. Identical values can stand only once.

Columns and labels:
Details in all cases: average where tested multiple times
BCAT2 [1] = target: T1, BCAT2 (Homo sapiens, UniProt O15382); assay: BCAT2 in vitro enzyme inhibition assay (resazurin/diaphorase-coupled fluorescence); assay type: biochemical
T1 sequence (O15382 28-392): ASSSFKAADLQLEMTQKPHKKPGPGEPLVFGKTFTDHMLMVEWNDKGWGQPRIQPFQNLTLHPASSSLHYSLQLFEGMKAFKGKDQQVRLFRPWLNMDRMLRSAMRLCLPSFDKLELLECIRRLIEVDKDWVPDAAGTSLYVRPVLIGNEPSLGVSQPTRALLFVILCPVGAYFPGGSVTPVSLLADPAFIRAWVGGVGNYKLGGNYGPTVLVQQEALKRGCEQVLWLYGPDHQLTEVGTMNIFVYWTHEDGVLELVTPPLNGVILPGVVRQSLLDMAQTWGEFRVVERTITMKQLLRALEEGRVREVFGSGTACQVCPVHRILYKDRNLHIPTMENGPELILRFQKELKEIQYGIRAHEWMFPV
In short: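 Coupled fluorescence readout: glutamate formed from L-leucine/α-ketoglutarate transamination drives GDH/NAD/diaphorase reduction of resazurin (Ex 540/Em 590). Human BCAT2 was first exposed 1 h at room temperature to compound, top final 100 μM in 3-fold, 10-point series; substrate reaction ran 1 h before SDS quench, in technical duplicate with DMSO max and enzyme-free min controls.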

BCAT2 [2] = target: T1, BCAT2; assay: BCAT2 in vitro cell inhibition using engineered A549 cells (KMV cell assay, 13C6-KMV by LC-MS/MS); assay type: cell-based; parameters: The result was an engineered A549 cell line that expressed endogenous BCAT2; endogenous in cells; host or cells: A549 cells with MUT and BCAT1 knocked out by CRISPR/CAS9; key to BCAT2 Cell Inhibition: A: less than or equal to 0.100 μM; B: greater than 0.100 and less than or equal to 0.500 μM; C: greater than 0.500 and less than or equal to 1.000 μM; d: greater than 1.000 μM; E: no fit
hBCAT1 = target: T2, hBCAT1 (Homo sapiens, UniProt P54687); assay: BCAT1 in vitro enzyme inhibition assay (resazurin/diaphorase-coupled fluorescence); assay type: biochemical
T2 sequence (P54687 1-386): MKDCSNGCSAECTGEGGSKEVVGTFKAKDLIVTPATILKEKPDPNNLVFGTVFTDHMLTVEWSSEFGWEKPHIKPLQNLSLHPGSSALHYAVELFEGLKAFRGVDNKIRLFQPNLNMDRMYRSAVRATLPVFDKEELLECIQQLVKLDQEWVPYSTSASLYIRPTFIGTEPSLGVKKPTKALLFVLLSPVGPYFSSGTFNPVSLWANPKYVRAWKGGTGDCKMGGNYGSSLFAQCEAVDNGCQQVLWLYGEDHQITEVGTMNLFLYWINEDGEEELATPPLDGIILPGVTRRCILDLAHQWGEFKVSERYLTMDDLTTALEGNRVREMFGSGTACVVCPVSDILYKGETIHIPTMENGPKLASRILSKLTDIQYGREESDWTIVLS
In short: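 Ten-point, 3-fold compound series (top final 100 μM, delivered 1:50 from 50× DMSO stocks) tested against hBCAT1. Inhibition detected via diaphorase-coupled resazurin fluorescence, duplicate wells, with values from repeated runs averaged.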

SMILES	IC50 (BCAT2 [1])	IC50 (BCAT2 [2])	IC50 (hBCAT1)	BCAT2 Cell Inhibition (BCAT2 [2])
CC(C)Cc1nc2cnc(-c3ccccn3)cc2n1[C@H]1C[C@@H](NC(=O)c2ncc(Cl)s2)CN(C)C1 [Example 262, 5-chloro-N-((3R,5S)-5-(2-isobutyl-6-(pyridin-2-yl)-1H-imidazo[4,5-c]pyridin-1-yl)-1-methylpiperidin-3-yl)thiazole-2-carboxamide]	100 to 500 nM	> 1000 nM	> 5000 nM	–
CN1C[C@H](NC(=O)c2ccc(Cl)s2)C[C@H](n2c(-c3ccccc3F)nc3cnc(-c4nc[nH]n4)cc32)C1 [Example 264, 5-chloro-N-((3R,5S)-5-(2-(2-fluorophenyl)-6-(1H-1,2,4-triazol-3-yl)-1H-imidazo[4,5-c]pyridin-1-yl)-1-methylpiperidin-3-yl)thiophene-2-carboxamide]	≤ 100 nM	≤ 100 nM	< 500 nM	–
O=C(N[C@H]1CCC[C@@H](n2c(-c3ccccc3F)nc3cnc(O[C@H]4CCOC4)cc32)C1)c1ncc(Cl)s1 [Example 267, 5-chloro-N-((1S,3R)-3-(2-(2-fluorophenyl)-6-(((S)-tetrahydrofuran-3-yl)oxy)-1H-imidazo[4,5-c]pyridin-1-yl)cyclohexyl)thiazole-2-carboxamide]	100 to 500 nM	100 to 500 nM	< 500 nM	–
Nc1cc2c(cn1)nc(-c1ccccc1F)n2[C@@H]1C[C@@H](O)C[C@H](NC(=O)c2ncc(Cl)s2)C1 [Example 270, N-((1R,3S,5S)-3-(6-amino-2-(2-fluorophenyl)-1H-imidazo[4,5-c]pyridin-1-yl)-5-hydroxycyclohexyl)-5-chlorothiazole-2-carboxamide]	≤ 100 nM	> 1000 nM	< 500 nM	–
O=C(N[C@H]1C[C@H](O)C[C@@H](n2c(-c3ccccc3F)nc3cnccc32)C1)c1ncc(Cl)s1 [Example 272, 5-chloro-N-((1R,3S,5S)-3-(2-(2-fluorophenyl)-1H-imidazo[4,5-c]pyridin-1-yl)-5-hydroxycyclohexyl)thiazole-2-carboxamide]	≤ 100 nM	500 to 1000 nM	500 to 1000 nM	–
CNc1cc2c(cn1)nc(-c1ccccc1F)n2[C@@H]1C[C@@H](O)C[C@H](NC(=O)c2ncc(Cl)s2)C1 [Example 274, 5-chloro-N-((1R,3S,5S)-3-(2-(2-fluorophenyl)-6-(methylamino)-1H-imidazo[4,5-c]pyridin-1-yl)-5-hydroxycyclohexyl)thiazole-2-carboxamide]	≤ 100 nM	500 to 1000 nM	< 500 nM	–
O=C(N[C@H]1C[C@H](O)C[C@@H](n2c(-c3ccccc3F)nc3cnc(F)cc32)C1)c1ncc(Cl)s1 [Example 276, 5-chloro-N-((1R,3S,5S)-3-(6-fluoro-2-(2-fluorophenyl)-1H-imidazo[4,5-c]pyridin-1-yl)-5-hydroxycyclohexyl)thiazole-2-carboxamide]	≤ 100 nM	≤ 100 nM	< 500 nM	–
COc1cc2c(cn1)nc(-c1ccccc1F)n2[C@@H]1C[C@@H](O)C[C@H](NC(=O)c2ncc(Cl)s2)C1 [Example 278, 5-chloro-N-((1R,3S,5S)-3-(2-(2-fluorophenyl)-6-methoxy-1H-imidazo[4,5-c]pyridin-1-yl)-5-hydroxycyclohexyl)thiazole-2-carboxamide]	≤ 100 nM	100 to 500 nM	< 500 nM	–
CNC(=O)c1cc2nc(-c3ccccc3F)n(C3CCCC(NC(=O)c4ncc(Cl)s4)C3O)c2cn1 (stereo not drawn) [Example 281, 5-chloro-N-(3-(2-(2-fluorophenyl)-6-(methylcarbamoyl)-3H-imidazo[4,5-c]pyridin-3-yl)-2-hydroxycyclohexyl)thiazole-2-carboxamide]	≤ 100 nM	≤ 100 nM	< 500 nM	–
CC(=O)N1CC(NC(=O)c2ccc(Br)s2)CC(n2c(-c3ncccc3F)nc3cc(-c4nnco4)ccc32)C1 (stereo not drawn) [Example 283, N-(1-acetyl-5-(2-(3-fluoropyridin-2-yl)-5-(1,3,4-oxadiazol-2-yl)-1H-benzo[d]imidazol-1-yl)piperidin-3-yl)-5-bromothiophene-2-carboxamide]	≤ 100 nM	> 1000 nM	> 5000 nM and 1000 to 5000 nM	–
CC(=O)N1CC(NC(=O)c2ccc(Br)s2)CC(n2c(-c3ccccn3)nc3ccc(-c4ncon4)cc32)C1 (stereo not drawn) [Example 286, N-(5-(6-(1,2,4-oxadiazol-3-yl)-2-(pyridin-2-yl)-1H-benzo[d]imidazol-1-yl)-1-acetylpiperidin-3-yl)-5-bromothiophene-2-carboxamide]	≤ 100 nM	100 to 500 nM	1000 to 5000 nM	–
CNC(=O)c1ccc2c(c1)nc(-c1ccccn1)n2C1CC(NC(=O)c2ccc(Br)s2)CN(C(C)=O)C1 (stereo not drawn) [Example 287, 1-(1-acetyl-5-(5-bromothiophene-2-carboxamido)piperidin-3-yl)-N-methyl-2-(pyridin-2-yl)-1H-benzo[d]imidazole-5-carboxamide]	100 to 500 nM	–	> 5000 nM	E
CNC(=O)c1ccc2c(c1)nc(-c1ccccn1)n2C1CC(NC(=O)c2ccc(Br)s2)CN(C)C1 (stereo not drawn) [Example 288, 1-(5-(5-bromothiophene-2-carboxamido)-1-methylpiperidin-3-yl)-N-methyl-2-(pyridin-2-yl)-1H-benzo[d]imidazole-5-carboxamide]	500 to 1000 nM	–	> 5000 nM	E
CNC(=O)c1cc2nc(-c3ccccc3F)n(C3CC(NC(=O)c4ccc(Br)s4)CN(C)C3)c2cc1OC (stereo not drawn) [Example 291, 1-(5-(5-bromothiophene-2-carboxamido)-1-methylpiperidin-3-yl)-2-(2-fluorophenyl)-6-methoxy-N-methyl-1H-benzo[d]imidazole-5-carboxamide]	≤ 100 nM	100 to 500 nM	1000 to 5000 nM	–
CC(C)(F)Cc1nc2cnc(-c3ccccn3)cc2n1[C@@H]1CCC[C@H](NC(=O)c2ncc(Cl)s2)C1 [Example 302, 5-chloro-N-((1S,3R)-3-(2-(2-fluoro-2-methylpropyl)-6-(pyridin-2-yl)-1H-imidazo[4,5-c]pyridin-1-yl)cyclohexyl)thiazole-2-carboxamide]	≤ 100 nM	100 to 500 nM	500 to 1000 nM	–
CC(C)Cc1nc2cnc(-c3ccccn3)cc2n1[C@@H]1CCC[C@H](NC(=O)c2ncc(Cl)s2)C1 [Example 303, 5-chloro-N-((1S,3R)-3-(2-isobutyl-6-(pyridin-2-yl)-1H-imidazo[4,5-c]pyridin-1-yl)cyclohexyl)thiazole-2-carboxamide]	≤ 100 nM	100 to 500 nM	< 500 nM	–
CC(C)[C@@H](O)c1nc2cnc(-c3ccccn3)cc2n1[C@@H]1CCC[C@H](NC(=O)c2ncc(Cl)s2)C1 [Example 305, 5-chloro-N-((1S,3R)-3-(2-((R)-1-hydroxy-2-methylpropyl)-6-(pyridin-2-yl)-1H-imidazo[4,5-c]pyridin-1-yl)cyclohexyl)thiazole-2-carboxamide]	≤ 100 nM	100 to 500 nM	< 500 nM	–
Cc1coc(-c2cc3c(cn2)nc(CC(C)C)n3[C@@H]2CCC[C@H](NC(=O)c3ncc(Cl)s3)C2)n1 [Example 306, 5-chloro-N-((1S,3R)-3-(2-isobutyl-6-(4-methyloxazol-2-yl)-1H-imidazo[4,5-c]pyridin-1-yl)cyclohexyl)thiazole-2-carboxamide]	≤ 100 nM	100 to 500 nM	500 to 1000 nM	–
CC(C)Cc1nc2cnc(-c3cccc(CO)n3)cc2n1[C@@H]1CCC[C@H](NC(=O)c2ncc(Cl)s2)C1 [Example 311, 5-chloro-N-((1S,3R)-3-(6-(6-(hydroxymethyl)pyridin-2-yl)-2-isobutyl-1H-imidazo[4,5-c]pyridin-1-yl)cyclohexyl)thiazole-2-carboxamide]	≤ 100 nM	500 to 1000 nM	1000 to 5000 nM	–
